# According to US10597388B2, “Pyridazinone herbicides” (FMC CORPORATION, priority 2014, dated 2020):
# How the values were obtained:
# Assay in all cases: Test E greenhouse herbicide test, pre- and postemergence
# Assay type in all cases: in vivo
# [1] = tested on: corn (Zea mays)
# Summary of the method: (§1)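 Compounds in surfactant-containing solvent are applied to soil right after sowing (silt loam) and, in parallel, to 1- to 4-leaf plants in a peat-based medium. Weed control is scored visually on a 0 (none) to 100 (complete) scale at 14 to 21 d.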
# [2] = tested on: foxtail, green (green foxtail, Setaria viridis); details: Preemergence
# Summary of the method: as §1
# [3] = tested on: beggarticks (hairy beggarticks, Bidens pilosa)
# Summary of the method: as §1
# [4] = tested on: lambsquarters (Chenopodium album); details: Preemergence
# Summary of the method: as §1
# [5] = tested on: crabgrass, large (large crabgrass, Digitaria sanguinalis); details: Preemergence
# Summary of the method: as §1
# [6] = tested on: field bindweed (Convolvulus arvensis)
# Summary of the method: as §1
# [7] = tested on: momingglory (Ipomoea coccinea); details: Preemergence
# Summary of the method: as §1
# [8] = tested on: panicum, fall (fall panicum, Panicum dichotomiflorum)
# Summary of the method: as §1
# [9] = tested on: horseweed (Conyza canadensis)
# Summary of the method: as §1
# [10] = tested on: nightshade (eastern black nightshade, Solanum ptycanthum); details: Preemergence
# Summary of the method: as §1
# [11] = tested on: arrowleaf sida (Sida rhombifolia)
# Summary of the method: as §1
# [12] = tested on: ragweed (common ragweed, Ambrosia elatior)
# Summary of the method: as §1
# [13] = tested on: sandbur (southem sandbur, Cenchrus echinatus)
# Summary of the method: as §1
# [14] = tested on: Italian ryegrass (Lolium multiflorum)
# Summary of the method: as §1
# [15] = tested on: foxtail, giant (giant foxtail, Setaria faberii); details: Preemergence
# Summary of the method: as §1
# [16] = tested on: velvetleaf (Abutilon theophrasti); details: Preemergence
# Summary of the method: as §1
# [17] = 62 g ai/ha, Postemergence, scale 0 to 100 (0 no effect, 100 complete control)
# [18] = 62 g ai/ha, Preemergence, scale 0 to 100 (0 no effect, 100 complete control)
# [19] = 125 g ai/ha, Postemergence, scale 0 to 100 (0 no effect, 100 complete control)
# [20] = 250 g ai/ha, Postemergence, scale 0 to 100 (0 no effect, 100 complete control)
# [21] = Postemergence, 31 g ai/ha, visual, scale 0 no effect to 100 complete control
# [22] = Preemergence, 31 g ai/ha, scale 0 to 100, 0 no effect, 100 complete control
# [23] = Preemergence, 125 g ai/ha, visual, scale 0 no effect to 100 complete control
# [24] = Preemergence, 250 g ai/ha, visual, scale 0 no effect to 100 complete control
# [25] = 62 g ai/ha, scale 0 to 100 (0 no effect, 100 complete control)
# [26] = 31 g ai/ha, scale 0 to 100, 0 no effect, 100 complete control
# [27] = 125 g ai/ha, visual, scale 0 no effect to 100 complete control
# [28] = 250 g ai/ha, visual, scale 0 no effect to 100 complete control
# [29] = 125 g ai/ha, scale 0 to 100 (0 no effect, 100 complete control)
# [30] = 125 g ai/ha, Preemergence, scale 0 to 100 (0 no effect, 100 complete control)
smiles,measurement,setting,value
Cc1nn(C)c(=O)c(-c2ccc(F)c3ccccc23)c1O [Compound 41],"Plant response rating, Corn",[1]; [17],0
same,"Plant response rating, Corn",[1]; [18],0
same,"Plant response rating, Corn",[1]; [19],0
same,"Plant response rating, Corn",[1]; [20],5
same,"Plant response rating, Corn",[1]; [21],0
same,"Plant response rating, Corn",[1]; [22],0
same,"Plant response rating, Corn",[1]; [23],0
same,"Plant response rating, Corn",[1]; [24],25
same,"Plant response rating, Foxtail, Green",[2]; [25],25
same,"Plant response rating, Foxtail, Green",[2]; [26],20
same,"Plant response rating, Foxtail, Green",[2]; [27],50
same,"Plant response rating, Foxtail, Green",[2]; [28],75
same,"Plant response rating, Beggarticks",[3]; [17],95
same,"Plant response rating, Beggarticks",[3]; [18],98
same,"Plant response rating, Beggarticks",[3]; [19],95
same,"Plant response rating, Beggarticks",[3]; [20],100
same,"Plant response rating, Beggarticks",[3]; [21],100
same,"Plant response rating, Beggarticks",[3]; [22],65
same,"Plant response rating, Beggarticks",[3]; [23],100
same,"Plant response rating, Beggarticks",[3]; [24],100
same,"Plant response rating, Lambsquarters",[4]; [25],100
same,"Plant response rating, Lambsquarters",[4]; [26],35
same,"Plant response rating, Lambsquarters",[4]; [27],100
same,"Plant response rating, Lambsquarters",[4]; [28],100
same,"Plant response rating, Crabgrass, Large",[5]; [25],70
same,"Plant response rating, Crabgrass, Large",[5]; [26],65
same,"Plant response rating, Crabgrass, Large",[5]; [27],80
same,"Plant response rating, Crabgrass, Large",[5]; [28],60
same,"Plant response rating, Field Bindweed",[6]; [17],90
same,"Plant response rating, Field Bindweed",[6]; [18],70
same,"Plant response rating, Field Bindweed",[6]; [19],85
same,"Plant response rating, Field Bindweed",[6]; [20],95
same,"Plant response rating, Field Bindweed",[6]; [21],80
same,"Plant response rating, Field Bindweed",[6]; [22],30
same,"Plant response rating, Field Bindweed",[6]; [23],75
same,"Plant response rating, Field Bindweed",[6]; [24],90
same,"Plant response rating, Morningglory",[7]; [25],50
same,"Plant response rating, Morningglory",[7]; [29],90
same,"Plant response rating, Morningglory",[7]; [26],30
same,"Plant response rating, Morningglory",[7]; [28],95
same,"Plant response rating, Panicum, Fall",[8]; [17],25
same,"Plant response rating, Panicum, Fall",[8]; [18],90
same,"Plant response rating, Panicum, Fall",[8]; [19],30
same,"Plant response rating, Panicum, Fall",[8]; [30],95
same,"Plant response rating, Panicum, Fall",[8]; [20],50
same,"Plant response rating, Panicum, Fall",[8]; [21],15
same,"Plant response rating, Panicum, Fall",[8]; [22],80
same,"Plant response rating, Panicum, Fall",[8]; [24],98
same,"Plant response rating, Horseweed",[9]; [17],80
same,"Plant response rating, Horseweed",[9]; [18],100
same,"Plant response rating, Horseweed",[9]; [19],80
same,"Plant response rating, Horseweed",[9]; [20],70
same,"Plant response rating, Horseweed",[9]; [21],75
same,"Plant response rating, Horseweed",[9]; [22],100
same,"Plant response rating, Horseweed",[9]; [23],100
same,"Plant response rating, Horseweed",[9]; [24],100
same,"Plant response rating, Nightshade",[10]; [25],80
same,"Plant response rating, Nightshade",[10]; [29],98
same,"Plant response rating, Nightshade",[10]; [26],25
same,"Plant response rating, Nightshade",[10]; [28],98
same,"Plant response rating, Arrowleaf Sida",[11]; [17],90
same,"Plant response rating, Arrowleaf Sida",[11]; [18],50
same,"Plant response rating, Arrowleaf Sida",[11]; [19],95
same,"Plant response rating, Arrowleaf Sida",[11]; [20],90
same,"Plant response rating, Arrowleaf Sida",[11]; [21],85
same,"Plant response rating, Arrowleaf Sida",[11]; [22],20
same,"Plant response rating, Arrowleaf Sida",[11]; [23],98
same,"Plant response rating, Arrowleaf Sida",[11]; [24],100
same,"Plant response rating, Ragweed",[12]; [18],70
same,"Plant response rating, Ragweed",[12]; [19],90
same,"Plant response rating, Ragweed",[12]; [30],90
same,"Plant response rating, Ragweed",[12]; [20],95
same,"Plant response rating, Ragweed",[12]; [21],80
same,"Plant response rating, Ragweed",[12]; [22],5
same,"Plant response rating, Ragweed",[12]; [24],100
same,"Plant response rating, Sandbur",[13]; [17],50
same,"Plant response rating, Sandbur",[13]; [18],70
same,"Plant response rating, Sandbur",[13]; [19],70
same,"Plant response rating, Sandbur",[13]; [30],75
same,"Plant response rating, Sandbur",[13]; [20],75
same,"Plant response rating, Sandbur",[13]; [21],60
same,"Plant response rating, Sandbur",[13]; [22],50
same,"Plant response rating, Sandbur",[13]; [24],80
same,"Plant response rating, Ryegrass, Italian",[14]; [17],85
same,"Plant response rating, Ryegrass, Italian",[14]; [18],100
same,"Plant response rating, Ryegrass, Italian",[14]; [19],85
same,"Plant response rating, Ryegrass, Italian",[14]; [30],100
same,"Plant response rating, Ryegrass, Italian",[14]; [20],90
same,"Plant response rating, Ryegrass, Italian",[14]; [21],80
same,"Plant response rating, Ryegrass, Italian",[14]; [22],98
same,"Plant response rating, Ryegrass, Italian",[14]; [24],100
same,"Plant response rating, Foxtail, Giant",[15]; [25],65
same,"Plant response rating, Foxtail, Giant",[15]; [26],30
same,"Plant response rating, Foxtail, Giant",[15]; [27],70
same,"Plant response rating, Foxtail, Giant",[15]; [28],90
same,"Plant response rating, Velvetleaf",[16]; [25],85
same,"Plant response rating, Velvetleaf",[16]; [29],95
same,"Plant response rating, Velvetleaf",[16]; [26],20
same,"Plant response rating, Velvetleaf",[16]; [28],100
